{"source": "patent US20230341397A1", "about": "“PROTEASE BIOSENSORS AND METHODS OF VIRUS DETECTION” (Montana Molecular LLC, priority 2020, published 2023)", "key": {"HEK 293 cells": {"tested_on": "HEK 293 cells", "conditions": "all GC376 concentrations (FIG. 11B)"}, "[1]": {"tested_on": "feline infectious peritonitis virus (FPIV)", "conditions": "Kim et al. 2016; disease otherwise 100% lethal; cited from earlier work"}}}
{"smiles": "CC(C)C[C@H](NC(=O)OCc1ccccc1)C(=O)N[C@@H](C[C@@H]1CCNC1=O)C(O)S(=O)(=O)[O-].[Na+]", "note": "(some centres unmarked) [GC376]", "values": [{"measurement": "cell death / red fluorescent protein signal", "setting": "HEK 293 cells", "value": "not due to cell death"}, {"measurement": "outcome in cats with clinical FPIV", "setting": "[1]", "value": "rescues them"}]}
